Laboratory results taken from the supplement of paper PMC11451515.

System: NOMO1
Experiment: cell viability relative to DMSO control; higher = less cytotoxic
Conditions: 48 h
Procedure, shortened: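 Viability was expressed as a per-plate percentage of DMSO wells, with cell-free wells as background. Leukemia cells (NOMO1 or SEM at 500 cells/well, P12-Ichikawa at 1000 cells/well) were adapted for at least four passages in each medium and seeded in 1536-well plates (5 μl). Library compounds in DMSO were pin-dosed over an 11-point threefold series from 47 μM to 0.79 nM, and CellTiter-Glo One luminescence was read after 48 h at 37°C.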

[1] = HPLM + 10% dialyzed FBS, 0.000781 µM
[2] = HPLM + 10% dialyzed FBS, 0.00234 µM
[3] = HPLM + 10% dialyzed FBS, 0.00702 µM
[4] = HPLM + 10% dialyzed FBS, 0.0211 µM
[5] = HPLM + 10% dialyzed FBS, 0.0632 µM
[6] = HPLM + 10% dialyzed FBS, 0.19 µM
[7] = HPLM + 10% dialyzed FBS, 0.569 µM
[8] = HPLM + 10% dialyzed FBS, 1.71 µM
[9] = HPLM + 10% dialyzed FBS, 5.12 µM
[10] = HPLM + 10% dialyzed FBS, 15.4 µM
[11] = HPLM + 10% dialyzed FBS, 46.1 µM
[12] = RPMI 5 mM glucose + 10% FBS, 0.000781 µM
[13] = RPMI 5 mM glucose + 10% FBS, 0.00234 µM
[14] = RPMI 5 mM glucose + 10% FBS, 0.00702 µM
[15] = RPMI 5 mM glucose + 10% FBS, 0.0211 µM
[16] = RPMI 5 mM glucose + 10% FBS, 0.0632 µM
[17] = RPMI 5 mM glucose + 10% FBS, 0.19 µM
[18] = RPMI 5 mM glucose + 10% FBS, 0.569 µM
[19] = RPMI 5 mM glucose + 10% FBS, 1.71 µM
[20] = RPMI 5 mM glucose + 10% FBS, 5.12 µM
[21] = RPMI 5 mM glucose + 10% FBS, 15.4 µM
[22] = RPMI 5 mM glucose + 10% FBS, 46.1 µM
[23] = RPMI 5 mM glucose + 10% dialyzed FBS, 0.000781 µM
[24] = RPMI 5 mM glucose + 10% dialyzed FBS, 0.00234 µM
[25] = RPMI 5 mM glucose + 10% dialyzed FBS, 0.00702 µM
[26] = RPMI 5 mM glucose + 10% dialyzed FBS, 0.0211 µM
[27] = RPMI 5 mM glucose + 10% dialyzed FBS, 0.0632 µM
[28] = RPMI 5 mM glucose + 10% dialyzed FBS, 0.19 µM
[29] = RPMI 5 mM glucose + 10% dialyzed FBS, 0.569 µM
[30] = RPMI 5 mM glucose + 10% dialyzed FBS, 1.71 µM
[31] = RPMI 5 mM glucose + 10% dialyzed FBS, 5.12 µM
[32] = RPMI 5 mM glucose + 10% dialyzed FBS, 15.4 µM
[33] = RPMI 5 mM glucose + 10% dialyzed FBS, 46.1 µM

NC(=O)c1ccc(-c2nc(-c3ccc4c(c3)OCO4)c(-c3ccccn3)[nH]2)cc1
cell viability [1]: 114% | cell viability [2]: 135% | cell viability [3]: 118% | cell viability [4]: 134% | cell viability [5]: 118% | cell viability [6]: 132% | cell viability [7]: 119% | cell viability [8]: 123% | cell viability [9]: 121% | cell viability [10]: 120% | cell viability [11]: 124% | cell viability [12]: 121% | cell viability [13]: 112% | cell viability [14]: 127% | cell viability [15]: 113% | cell viability [16]: 126% | cell viability [17]: 111% | cell viability [18]: 124% | cell viability [19]: 109% | cell viability [20]: 108% | cell viability [21]: 125% | cell viability [22]: 112% | cell viability [23]: 117% | cell viability [24]: 108% | cell viability [25]: 117% | cell viability [26]: 114% | cell viability [27]: 116% | cell viability [28]: 110% | cell viability [29]: 119% | cell viability [30]: 116% | cell viability [31]: 109% | cell viability [32]: 113% | cell viability [33]: 105%

CC1(C)Cc2c(sc(NC(=S)NC(=O)c3ccccc3)c2C(=O)O)CO1
cell viability [1]: 102% | cell viability [2]: 107% | cell viability [3]: 100% | cell viability [4]: 117% | cell viability [5]: 120% | cell viability [6]: 114% | cell viability [7]: 115% | cell viability [8]: 112% | cell viability [9]: 114% | cell viability [10]: 94.5% | cell viability [11]: 95.1% | cell viability [12]: 115% | cell viability [13]: 111% | cell viability [14]: 105% | cell viability [15]: 101% | cell viability [16]: 105% | cell viability [17]: 96.6% | cell viability [18]: 118% | cell viability [19]: 106% | cell viability [20]: 115% | cell viability [21]: 101% | cell viability [22]: 91.5% | cell viability [23]: 87.7% | cell viability [24]: 102% | cell viability [25]: 96.3% | cell viability [26]: 108% | cell viability [27]: 109% | cell viability [28]: 103% | cell viability [29]: 121% | cell viability [30]: 109% | cell viability [31]: 101% | cell viability [32]: 101% | cell viability [33]: 102%

CN(c1nccc(=O)[nH]1)C1CCN(c2nc3ccccc3n2Cc2ccc(F)cc2)CC1
cell viability [1]: 90% | cell viability [2]: 104% | cell viability [3]: 116% | cell viability [4]: 117% | cell viability [5]: 128% | cell viability [6]: 124% | cell viability [7]: 116% | cell viability [8]: 120% | cell viability [9]: 105% | cell viability [10]: 111% | cell viability [11]: 99.1% | cell viability [12]: 104% | cell viability [13]: 101% | cell viability [14]: 112% | cell viability [15]: 104% | cell viability [16]: 114% | cell viability [17]: 115% | cell viability [18]: 130% | cell viability [19]: 126% | cell viability [20]: 117% | cell viability [21]: 108% | cell viability [22]: 105% | cell viability [23]: 109% | cell viability [24]: 108% | cell viability [25]: 105% | cell viability [26]: 121% | cell viability [27]: 114% | cell viability [28]: 116% | cell viability [29]: 122% | cell viability [30]: 121% | cell viability [31]: 114% | cell viability [32]: 131% | cell viability [33]: 90.8%

Cn1c(=O)c2[nH]cnc2n(C)c1=O
cell viability [1]: 120% | cell viability [2]: 111% | cell viability [3]: 121% | cell viability [4]: 122% | cell viability [5]: 92.5% | cell viability [6]: 115% | cell viability [7]: 120% | cell viability [8]: 106% | cell viability [9]: 110% | cell viability [10]: 102% | cell viability [11]: 84.8% | cell viability [12]: 114% | cell viability [13]: 103% | cell viability [14]: 103% | cell viability [15]: 104% | cell viability [16]: 94% | cell viability [17]: 100% | cell viability [18]: 101% | cell viability [19]: 113% | cell viability [20]: 95.8% | cell viability [21]: 99% | cell viability [22]: 93.6% | cell viability [23]: 101% | cell viability [24]: 108% | cell viability [25]: 104% | cell viability [26]: 100% | cell viability [27]: 108% | cell viability [28]: 96.3% | cell viability [29]: 92.2% | cell viability [30]: 99.7% | cell viability [31]: 106% | cell viability [32]: 97.5% | cell viability [33]: 87.7%

C/C(=C\c1csc(C)n1)[C@@H]1C[C@@H]2O[C@]2(C)CCC[C@H](C)[C@H](O)[C@@H](C)C(=O)C(C)(C)[C@@H](O)CC(=O)O1
cell viability [1]: 22.6% | cell viability [2]: 28.6% | cell viability [3]: 32% | cell viability [4]: 27.8% | cell viability [5]: 29.6% | cell viability [6]: 27.8% | cell viability [7]: 29.6% | cell viability [8]: 35% | cell viability [9]: 25.2% | cell viability [10]: 27.6% | cell viability [11]: 31.3% | cell viability [12]: 14.1% | cell viability [13]: 18.3% | cell viability [14]: 20.6% | cell viability [15]: 18.3% | cell viability [16]: 20.3% | cell viability [17]: 15.9% | cell viability [18]: 16.8% | cell viability [19]: 19.2% | cell viability [20]: 15.3% | cell viability [21]: 14.5% | cell viability [22]: 14.9% | cell viability [23]: 18.1% | cell viability [24]: 22.2% | cell viability [25]: 22.9% | cell viability [26]: 39.2% | cell viability [27]: 23.9% | cell viability [28]: 24.5% | cell viability [29]: 21.8% | cell viability [30]: 21.4% | cell viability [31]: 21.9% | cell viability [32]: 25% | cell viability [33]: 20%
